In US9597407B2, “Targeted antimicrobial moieties” (C3 Jian, Inc., priority 2009, dated 2017):
Entries after “also recorded” stand apart in the source; their conditions may differ. Square brackets hold non-standard residues; d marks the D form. Ends that are not written are not given here. dOrn = NCCC[C@@H](N)C(=O)O

Test system: bacteria
Assay: Binding of targeting peptides to microorganisms (Table 3)
Conditions: preferably 1x PBS
[1] = peptide binding in aqueous buffers that varied depending on peptide solubility
[2] = microorganism bound by the targeting peptide, binding in aqueous buffers chosen by peptide solubility
[3] = microorganism the targeting peptide binds, binding in aqueous buffers that varied with peptide solubility
[4] = peptide binding in aqueous buffers varied by peptide solubility

| Substance | Target(s) [2] | Target(s) [3] | further results |
| --- | --- | --- | --- |
| PF-728 (AIGQEQDRREYYYYSGYPYYY; Peptide with targeting and/or antimicrobial activity) | – | – | Target(s) (microorganism bound by the targeting peptide) [1]: S. mutans; also recorded: E. coli |
| PF-163 (TSWLRAAERQEIGEPTKTFGEKTTSL; Peptide with targeting and/or antimicrobial activity) | S. epidermidis | – | – |
| CHA0 (D[dOrn]KTAA[dOrn]K; bridge (positions not given here); not fully specified (bridges)) | – | P. fluorescens | – |
| PF-244 (HMRTISYLLAFAKFSLFIPPKQSLKRL; Peptide with targeting and/or antimicrobial activity) | S. epidermidis; also recorded: M. luteus; also recorded: P. aeruginosa; also recorded: A. baumannii | – | – |
| PF-787 (MTERQRRALLKQHPEVVSWSDYLEKRKRRTGTAG; Peptide with targeting and/or antimicrobial activity) | – | – | Target(s) (microorganism bound by the targeting peptide) [1]: Mycobacteria spp. |
| PF-317 (LILVSDI; Peptide with targeting and/or antimicrobial activity) | S. mutans | – | – |
| PF-038 (MAYKDEGKETKFAVKGYKD; Peptide with targeting and/or antimicrobial activity) | – | M. luteus | – |
| 1T-304 (STAGEASRRTASEASRRTAAKLRG; Peptide with targeting and/or antimicrobial activity) [Peptide 1T-304] | – | P. gingivalis | – |
| PF-714 (FVVTQRMLRMYKK; Peptide with targeting and/or antimicrobial activity) | – | – | Target(s) (microorganism bound by the targeting peptide) [1]: L. pneumophila |
| 1T-45 (WTKPSFTDLRLGFEVTLYFANR; Peptide with targeting and/or antimicrobial activity) [Peptide 1T-45] | – | – | Target(s) (microorganism bound by the targeting peptide) [4]: S. aureus; also recorded: S. epidermidis; also recorded: C. striatum; also recorded: P. aeruginosa |
| PF-673 (VRRLRM; Peptide with targeting and/or antimicrobial activity) | – | – | Target(s) (microorganism bound by the targeting peptide) [1]: S. mutans; also recorded: E. coli |
| PF-371 (TFIYNEF; Peptide with targeting and/or antimicrobial activity) | S. epidermidis; also recorded: B. fragilis; also recorded: C. jejuni | – | – |
| PF-130 (LQRSDEESMPRRHEKYS; Peptide with targeting and/or antimicrobial activity) | E. faecalis; also recorded: C. jeikeium; also recorded: C. jejuni | – | – |
| 1T-23 (PALVDLSNKEAVWAVLDDHS; Peptide with targeting and/or antimicrobial activity) [Peptide 1T-23] | – | – | Target(s) (microorganism bound by the targeting peptide) [4]: S. mutans; also recorded: P. aeruginosa |
| PF-050 (SYYLKRREEKGK; Peptide with targeting and/or antimicrobial activity) | – | S. epidermidis; also recorded: M. luteus; also recorded: E. coli; also recorded: C. jeikeium | – |
| PF-492 (IQIDAASFYSISKSTIK; Peptide with targeting and/or antimicrobial activity) | – | – | Target(s) (microorganisms bound by the targeting peptide) [1]: S. mutans; also recorded: B. subtilis; also recorded: E. coli |
| PF-253 (VRDDDS; Peptide with targeting and/or antimicrobial activity) | S. epidermidis; also recorded: M. luteus | – | – |
| 1T-288 (RWVGGEPSADIYLSAKDTKT; Peptide with targeting and/or antimicrobial activity) [Peptide 1T-288] | – | F. nucleatum; also recorded: S. gordonii; also recorded: S. salivarious; also recorded: S. sanguinis | – |
| 1T-242 (KQVQNTTLIICGTVLLGILFKSYLKSQKSV; Peptide with targeting and/or antimicrobial activity) [Peptide 1T-242] | – | F. nucleatum; also recorded: S. sanguinis | – |
| 1T-249 (VFSVLKHTTWPTRKQSWHDFISILEYSAFFALVIFIFDKLLTLGLAELLKRF; Peptide with targeting and/or antimicrobial activity) [Peptide 1T-249] | – | F. nucleatum; also recorded: S. sanguinis | – |
